A short description of data set [1]: Inhibition of bovine tubulin polymerization after 30 mins by turbidity assay. Details: species or system Bos taurus.
Data set [2] addresses T1, Vascular endothelial growth factor receptor 2 (Homo sapiens, UniProt P35968). The experiment in a line: Inhibition of VEGFR-2 kinase assessed as phosphorylated level of pGAT-biotin peptide preincubated for 5 to 10 mins before addition of substrate measured after 2 hrs by HTRF assay. In general terms: Time-resolved FRET reads energy transfer from a long-lived donor to a nearby acceptor.

For the next data set, the system named is A-431. The experiment in a line: cells. The following applies: Homo sapiens, A-431, 24 h.
The target of data set [3] is T1, Vascular endothelial growth factor receptor 2. The experiment in a line: Inhibition of VEGFR2 expressed HEK293 cells. Format: cell-based.
A short description of data set [4]: Antitumor activity against human MDA-MB-435-LM2 cells xenografted in mouse assessed as tumor size at 100 mg/kg, po administered once a week measured on day 26 relative to control. The class given is functional.
For data set [5], the system named is Mus musculus. Description: Toxicity in mouse assessed as inflamed intestine at 100 mg/kg, po administered once a week. The settings on record: in vivo. The class given is organism-based. Details: dose 100 mg/kg, route oral.
Data set [6] deals with Mus musculus. Description: Toxicity in mouse assessed as enlarged intestine at 100 mg/kg, po administered once a week. Format: organism-based. The settings on record: in vivo. Set-up: dose 100 mg/kg, route oral.
Data set [7] deals with Mus musculus. The experiment in a line: Toxicity in mouse assessed as body weight change at 100 mg/kg, po administered once a week. Format: organism-based. The following applies: in vivo. Set-up: dose 100 mg/kg, route oral.
The subject of data set [8] is Mus musculus. Description: Toxicity in mouse assessed as distended stomach at 100 mg/kg, po administered once a week. Format: organism-based. Set-up: dose 100 mg/kg, route oral. The settings on record: in vivo.
For data set [9], the system named is Mus musculus. Description: Toxicity in mouse assessed as moribund at 100 mg/kg, po administered once a week measured on day 26. The class given is organism-based. Set-up: dose 100 mg/kg, route oral. The settings on record: in vivo.
The target in data set [10] is T2, Aurora kinase A (Homo sapiens) (UniProt O14965).
T2 sequence (whole entry): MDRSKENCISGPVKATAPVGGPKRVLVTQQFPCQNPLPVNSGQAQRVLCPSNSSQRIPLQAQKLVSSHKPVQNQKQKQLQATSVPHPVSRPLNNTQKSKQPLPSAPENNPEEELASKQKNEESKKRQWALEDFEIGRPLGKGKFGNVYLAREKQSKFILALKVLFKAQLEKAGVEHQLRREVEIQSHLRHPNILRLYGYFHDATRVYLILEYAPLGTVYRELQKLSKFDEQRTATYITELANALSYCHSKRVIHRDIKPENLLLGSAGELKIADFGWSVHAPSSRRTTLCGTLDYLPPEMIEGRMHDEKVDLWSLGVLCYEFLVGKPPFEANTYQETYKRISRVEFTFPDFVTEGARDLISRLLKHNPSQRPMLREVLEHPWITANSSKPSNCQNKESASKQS
Description: Inhibition of Aurora A kinase.

For data set [11], the system named is Mus musculus. Description: Toxicity in mouse assessed as discomfort signs at 100 mg/kg, po administered once a week. Format: organism-based. Details: dose 100 mg/kg, route oral. The settings on record: in vivo.
Data set [12] is described as follows: Toxicity in po dosed mouse. The settings on record: in vivo. Format: organism-based.
Data set [13] concerns the target Serine/threonine-protein kinase PLK1 (Homo sapiens) (UniProt P53350). The experiment in a line: Inhibition of polo-like kinase 1.
For data set [14], the system named is Mus musculus. The experiment in a line: Toxicity in mouse assessed as neuropathy at 100 mg/kg administered once a week. The class given is organism-based. Details: dose 100 mg/kg. The following applies: in vivo.
For data set [15], the system named is Mus musculus. The experiment in a line: Toxicity in mouse assessed as white blood cell depletion at 100 mg/kg administered once a week. The class given is organism-based. Set-up: dose 100 mg/kg. The settings on record: in vivo.
Data set [16] concerns Mus musculus. Description: Toxicity in mouse assessed as abnormal pathology at 100 mg/kg, po administered once a week. The class given is organism-based. Details: dose 100 mg/kg, route oral. The settings on record: in vivo.
Data set [17] has as its target Cyclin-dependent kinase 1 (Homo sapiens) (UniProt P06493). Description: Inhibition of CDK1.

Active and inactive are the calls of the source. The rule behind the calls is not given here. A value given as a limit tells only on which side of the number the result lay.

T1 sequence (P35968 whole entry): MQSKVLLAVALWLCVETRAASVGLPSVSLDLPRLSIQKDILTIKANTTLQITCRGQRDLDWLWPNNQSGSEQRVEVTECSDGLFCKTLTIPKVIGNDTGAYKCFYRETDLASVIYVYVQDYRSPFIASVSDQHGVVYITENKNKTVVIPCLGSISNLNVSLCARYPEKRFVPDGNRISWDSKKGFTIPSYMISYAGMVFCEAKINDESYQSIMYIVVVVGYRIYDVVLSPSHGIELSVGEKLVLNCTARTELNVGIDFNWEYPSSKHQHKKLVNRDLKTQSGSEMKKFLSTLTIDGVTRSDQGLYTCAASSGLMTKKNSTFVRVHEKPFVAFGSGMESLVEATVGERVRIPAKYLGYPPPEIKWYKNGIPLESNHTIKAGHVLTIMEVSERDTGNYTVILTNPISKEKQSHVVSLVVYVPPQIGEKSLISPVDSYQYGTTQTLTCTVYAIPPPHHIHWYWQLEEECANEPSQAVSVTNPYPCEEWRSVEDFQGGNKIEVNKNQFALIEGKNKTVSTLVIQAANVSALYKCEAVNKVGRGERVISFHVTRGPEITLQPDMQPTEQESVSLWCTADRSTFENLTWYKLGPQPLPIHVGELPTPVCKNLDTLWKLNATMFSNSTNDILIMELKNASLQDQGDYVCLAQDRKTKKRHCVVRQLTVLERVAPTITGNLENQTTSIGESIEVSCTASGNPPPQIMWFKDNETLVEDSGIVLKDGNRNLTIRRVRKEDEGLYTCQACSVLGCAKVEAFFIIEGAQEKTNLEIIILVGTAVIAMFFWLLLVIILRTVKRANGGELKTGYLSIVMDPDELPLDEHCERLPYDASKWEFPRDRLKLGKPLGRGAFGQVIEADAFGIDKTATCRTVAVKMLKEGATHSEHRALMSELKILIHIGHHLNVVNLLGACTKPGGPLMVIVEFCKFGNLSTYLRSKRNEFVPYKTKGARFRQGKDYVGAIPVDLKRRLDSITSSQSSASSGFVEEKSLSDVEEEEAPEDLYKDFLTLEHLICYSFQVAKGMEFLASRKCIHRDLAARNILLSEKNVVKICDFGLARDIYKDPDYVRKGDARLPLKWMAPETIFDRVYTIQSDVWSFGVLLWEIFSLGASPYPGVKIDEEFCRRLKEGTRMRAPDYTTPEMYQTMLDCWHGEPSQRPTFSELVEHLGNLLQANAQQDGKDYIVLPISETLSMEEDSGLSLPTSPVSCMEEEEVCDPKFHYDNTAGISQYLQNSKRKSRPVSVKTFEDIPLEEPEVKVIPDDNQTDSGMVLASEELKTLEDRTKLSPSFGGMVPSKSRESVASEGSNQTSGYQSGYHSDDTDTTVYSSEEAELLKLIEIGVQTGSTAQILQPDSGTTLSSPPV
Cyclin-dependent kinase 1 (Homo sapiens), sequence (P06493 whole entry, looked up): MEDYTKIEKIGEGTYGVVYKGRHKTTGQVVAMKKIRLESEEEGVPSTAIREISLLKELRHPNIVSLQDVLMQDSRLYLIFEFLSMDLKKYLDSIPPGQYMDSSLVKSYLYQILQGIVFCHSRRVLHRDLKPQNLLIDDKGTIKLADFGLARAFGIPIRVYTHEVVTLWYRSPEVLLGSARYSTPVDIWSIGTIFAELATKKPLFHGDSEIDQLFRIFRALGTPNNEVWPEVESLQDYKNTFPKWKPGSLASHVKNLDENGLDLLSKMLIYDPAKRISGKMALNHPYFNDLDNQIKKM
Serine/threonine-protein kinase PLK1 (Homo sapiens), sequence (P53350 whole entry): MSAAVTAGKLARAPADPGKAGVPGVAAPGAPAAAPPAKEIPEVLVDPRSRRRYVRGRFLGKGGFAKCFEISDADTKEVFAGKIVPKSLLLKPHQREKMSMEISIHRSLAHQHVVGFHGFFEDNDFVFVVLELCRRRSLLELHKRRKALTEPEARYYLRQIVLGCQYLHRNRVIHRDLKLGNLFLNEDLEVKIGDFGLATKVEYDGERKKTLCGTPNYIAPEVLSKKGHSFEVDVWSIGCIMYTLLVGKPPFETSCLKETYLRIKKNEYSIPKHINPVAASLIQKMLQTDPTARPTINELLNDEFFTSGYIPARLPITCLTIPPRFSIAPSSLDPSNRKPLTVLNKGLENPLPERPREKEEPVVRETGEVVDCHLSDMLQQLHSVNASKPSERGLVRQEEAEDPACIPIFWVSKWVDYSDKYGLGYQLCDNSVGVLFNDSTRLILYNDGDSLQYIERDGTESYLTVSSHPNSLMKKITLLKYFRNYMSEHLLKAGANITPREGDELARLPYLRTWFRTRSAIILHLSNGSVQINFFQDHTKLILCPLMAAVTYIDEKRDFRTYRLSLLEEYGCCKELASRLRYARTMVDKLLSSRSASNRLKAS
Description for A-431: Cell cycle arrest in human A431 cells assessed as accumulation at G2/M phase after 24 hrs using propidium iodide staining by cell sorting method

Turning to `FC(F)(F)c1cccc(-c2nnc(-c3cccnc3NCc3ccncc3)[nH]2)c1`, the IC50 – broadly, the point on the concentration scale where inhibition reaches its midpoint – is above 10 µM in data set [1], 1.1 µM in data set [2] and 1 µM in data set [3]. In addition, the EC50 (as a rule, the concentration that produces a half-maximal response) with A-431 is above 10 µM.

For the compound `CC(=O)O[C@H]1C(=O)[C@@]2(C)[C@H]([C@H](OC(=O)c3ccccc3)[C@]3(O)C[C@H](OC(=O)[C@H](O)[C@@H](NC(=O)c4ccccc4)c4ccccc4)C(C)=C1C3(C)C)[C@]1(OC(C)=O)CO[C@@H]1C[C@@H]2O` [PACLITAXEL], the Activity in data set [4] is given as 78%; in the data set with Mus musculus [5] it was “Toxic”; with Mus musculus [6], “Toxic”; with Mus musculus [7], 2.8%; with Mus musculus [8], “Toxic”; with Mus musculus [9] it was “Toxic”.

In the case of `c1ccc(-c2nnc(Nc3ccc4c(c3)OCCO4)[nH]2)c(NCc2cnc[nH]2)c1`, the IC50 in data set [1] is above 10 µM; in data set [2] it was 4.6 µM; in data set [3], above 10 µM. This compound displayed an EC50 in the data set on A-431 above 10 µM.

Take `c1ccc(-c2nnc(Nc3ccc4c(c3)OCCO4)o2)c(NCc2ccncc2)c1`: the Activity in [4] is 28%; with Mus musculus [11] it was “Toxic”; in the data set on Mus musculus [14], “Non-toxic”; in the data set on Mus musculus [15] it was “Non-toxic”; with Mus musculus [7], 3.1%; in the data set with Mus musculus [16] it was “Toxic”. In addition, the figures for the IC50 in [1], in data set [2] and in [3] were 1.09 µM, 0.21 µM and 0.11 µM, respectively. In addition, the inhibition entry in data set [10], in data set [13] and in data set [17] was “Active” in each case. The same compound returned an MTD in data set [12] of 100 mg/kg. Besides, the EC50 in the data set on A-431 was 0.009 µM.

Regarding `c1cnc(NCc2ccncc2)c(-c2nnc(Nc3ccc4c(c3)OCCO4)o2)c1`, the half-maximal inhibitory concentration (IC50) in data set [1] was 0.5 µM; in [2] it was 0.17 µM; in [3], 1 µM.

Take `c1ccc(-c2nnc(Nc3ccc4c(c3)OCCO4)[nH]2)c(NCc2ccc3ncccc3c2)c1`: the IC50 in data set [1], in data set [2] and in data set [3] was above 10 µM throughout. In the data set on A-431, this compound showed an EC50 above 10 µM.

For `FC(F)(F)c1cccc(-c2nnc(-c3cccnc3NCc3ccncc3)o2)c1`, the IC50 in data set [1] is above 10 µM; in data set [2] it was 2.5 µM; in data set [3] it was above 10 µM. In addition, in the data set with A-431, the EC50 is above 10 µM.

With `c1ccc(CNc2ncccc2-c2nnc(Nc3ccc4c(c3)OCO4)o2)nc1`, the values for the IC50 in data set [1], in data set [2] and in data set [3] were 1.7 µM, above 10 µM and above 10 µM, respectively.

Consider `c1ccc(-c2nnc(Nc3ccc4c(c3)OCO4)o2)c(NCc2ccncc2)c1`, for which the values for the IC50 in data set [1], in data set [2] and in [3] were 0.69 µM, 0.83 µM and above 10 µM, respectively. The compound also returned an EC50 in the data set on A-431 of 0.62 µM.

On to `c1cnc(NCCc2ccncc2)c(-c2nnc(Nc3ccc4c(c3)OCCO4)o2)c1`, for which the IC50 in data set [1], in data set [2] and in [3] was above 10 µM throughout. The same compound came in with an EC50 in the data set on A-431 above 10 µM.

In the case of `c1cncc(CCNc2ncccc2-c2nnc(Nc3ccc4c(c3)OCO4)o2)c1`, the figures for the IC50 in data set [1], in [2] and in [3] were 1.7 µM, 3.41 µM and above 10 µM, respectively. In the data set on A-431, this compound yielded an EC50 above 10 µM.

For the compound `c1ccc(-c2nnc(Nc3ccc4c(c3)OCCO4)[nH]2)c(NCc2ccc3[nH]ncc3c2)c1`, the IC50 in [1] is above 10 µM; in data set [2] it was 3.1 µM; in [3], 7.3 µM. Also, the EC50 with A-431 is above 10 µM.

Consider `c1cnc(NCc2ccc3c(c2)OCO3)c(-c2nnc(Nc3ccc4c(c3)OCO4)o2)c1`, for which the IC50 in data set [1] is 2.5 µM; in data set [2], above 10 µM; in data set [3] it was above 10 µM. Also, the response in the data set on A-431 was half-maximal at 0.52 µM (EC50).

Take `FC1(F)Oc2ccc(Nc3nnc(-c4cccnc4NCc4ccncc4)o3)cc2O1`: the IC50 in [1] is 3.9 µM; in [2] it was 3.16 µM; in data set [3], above 10 µM. For the same compound, the EC50 in the data set on A-431 is above 10 µM.

Regarding `c1cncc(CCNc2ncccc2-c2nnc(Nc3ccc4c(c3)OCCO4)o2)c1`, the IC50 in [1], in data set [2] and in [3] was above 10 µM in each case. In the data set on A-431, the EC50 was above 10 µM.

For `c1ccc(CNc2ncccc2-c2nnc(Nc3ccc4c(c3)OCCO4)o2)nc1`, the figures for the IC50 in [1], in data set [2] and in data set [3] were 1.9 µM, above 10 µM and above 10 µM, respectively.

On to `c1cnc(NCc2ccncc2)c(-c2nnc(Nc3ccc4c(c3)OCO4)o2)c1`, for which the IC50 in [1] was 1 µM; in data set [2] it was 1.89 µM; in [3] it was above 10 µM.

Regarding `c1cnc(NCc2cnc[nH]2)c(-c2nnc(Nc3ccc4c(c3)OCCO4)o2)c1`, the values for the IC50 in [1], in [2] and in data set [3] were 1.5 µM, 0.16 µM and 0.83 µM, respectively. The EC50 with A-431 came out at 0.01 µM.

As to `c1cnc(NCc2ccc3[nH]ncc3c2)c(-c2nnc(Nc3ccc4c(c3)OCCO4)o2)c1`, the IC50 in [1] was 1.25 µM; in data set [2], 1.4 µM; in [3] it was above 10 µM. This compound returned an EC50 in the data set on A-431 of 0.034 µM.

`c1ccc(-c2nnc(Nc3ccc4c(c3)OCCO4)[nH]2)c(NCc2ccncc2)c1`: the values for the IC50 in data set [1], in data set [2] and in [3] were 8.1 µM, 5.1 µM and above 10 µM, respectively. It took 0.049 µM to reach a half-maximal effect in the data set with A-431 (EC50).

As for `c1cnc(NCc2ccc3ncccc3c2)c(-c2nnc(Nc3ccc4c(c3)OCCO4)o2)c1`, the results for the IC50 in data set [1], in data set [2] and in [3] were 1.45 µM, 0.3 µM and 0.22 µM, respectively. Moreover, the inhibition entry in data set [10], in data set [13] and in data set [17] was “Active” throughout. It took 0.018 µM to reach a half-maximal effect in the data set with A-431 (EC50).

As to `CS(=O)(=O)c1ccc(-c2nnc(-c3cccnc3NCC3COCCO3)[nH]2)cc1` (stereo unspecified), the IC50 was 6.6 µM in data set [1], 4.5 µM in data set [2] and above 10 µM in data set [3]. For the same compound, the EC50 with A-431 is above 10 µM.

As to `c1cnc(NCCc2ccncc2)c(-c2nnc(Nc3ccc4c(c3)OCO4)o2)c1`, the IC50 in data set [1], in [2] and in data set [3] was above 10 µM each time. The EC50 with A-431 is above 10 µM.

Take `c1cncc(CNc2ncccc2-c2nnc(Nc3ccc4c(c3)OCO4)o2)c1`: the IC50 is 8.8 µM in data set [1], above 10 µM in [2] and above 10 µM in data set [3].

Consider `c1cnc(NCc2ccc3c(c2)OCO3)c(-c2nnc(Nc3ccc4c(c3)OCCO4)o2)c1`, for which the figures for the IC50 in [1], in data set [2] and in data set [3] were 0.71 µM, 2.6 µM and above 10 µM, respectively.

In the case of `c1cncc(CNc2ccccc2-c2nnc(Nc3ccc4c(c3)OCCO4)[nH]2)c1`, the IC50 is above 10 µM in [1], 3.2 µM in [2] and 2.8 µM in data set [3]. Further, in the data set with A-431, the EC50 was above 10 µM.

Turning to `c1cncc(CNc2ncccc2-c2nnc(Nc3ccc4c(c3)OCCO4)o2)c1`, the IC50 in data set [1] is 0.7 µM; in data set [2] it was above 10 µM; in [3] it was above 10 µM.

These data come from ChEMBL document CHEMBL1687699, “Discovery of Dual VEGFR-2 and Tubulin Inhibitors with in Vivo Efficacy” (ACS Med Chem Lett, 2010).
